Source: patent publication US10952436B2, “Microbiocidal quinoline (thio)carboxamide derivatives” (SYNGENTA PARTICIPATIONS AG, priority 2017, dated 2021)

Columns and labels:
[1] = system: Botryotinia fuckeliana (Botrytis cinerea); assay: Botryotinia fuckeliana (Botrytis cinerea)/Liquid Culture (Gray Mould); assay type: cell-based; settings: 200 ppm, liquid culture, compared to untreated control, 3-4 days after application, read-out: control of Botryotinia fuckeliana
Fusarium culmorum [2] = assay: microbe, parasite or virus in culture; assay type: cell-based; settings: read-out: control of Fusarium culmorum
Fusarium culmorum [3] = assay: whole plant or invertebrate; assay type: in vivo; settings: in Triticum aestivum, read-out: control of Fusarium culmorum
[4] = system: Glomerella lagenarium (Colletotrichum lagenarium); assay: Glomerella lagenarium (Colletotrichum lagenarium)/Liquid Culture (Anthracnose); assay type: cell-based; settings: Colletotrichum orbiculare; 200 ppm; liquid culture, compared to untreated control, 3-4 days after application; read-out: control of Glomerella lagenarium
[5] = system: Monographella nivalis (Microdochium nivale); assay: Monographella nivalis (Microdochium nivale)/Liquid Culture (Foot Rot Cereals); assay type: cell-based; settings: 200 ppm, liquid culture, compared to untreated control, 4-5 days after application, read-out: control of Monographella nivalis
[6] = system: Magnaporthe grisea (Pyricularia oryzae); assay: microbe, parasite or virus in culture; assay type: cell-based; settings: read-out: control of Magnaporthe grisea
Sclerotinia sclerotiorum = assay: Sclerotinia sclerotiorum/Liquid Culture (Cottony Rot); settings: read-out: control of Sclerotinia sclerotiorum
Procedure: Mycelia fragments of a newly grown liquid culture of the fungus are directly mixed into nutrient broth (Vogels broth). After placing a (DMSO) solution of test compound into a microtiter plate (96-well format) the nutrient broth containing the fungal material is added. The test plates are incubated at 24° C. and the inhibition of growth is determined photometrically 3-4 days after application.

[7] = system: Magnaporthe grisea (Pyricularia oryzae); assay: whole plant or invertebrate; assay type: in vivo; settings: foliar, read-out: control of Magnaporthe grisea

Row | Compound | inhibition of growth at 200 ppm [1] [%] | inhibition of growth at 200 ppm (Fusarium culmorum [2]) [%] | pest or weed control at 200 ppm (Fusarium culmorum [3]) [%] | inhibition of growth at 200 ppm [4] [%] | inhibition of growth at 200 ppm [5] [%] | inhibition of growth at 200 ppm [6] [%] | melting point [°C] | inhibition of growth at 20 ppm (Sclerotinia sclerotiorum) [%] | pest or weed control at 200 ppm [7] [%]
1 | CC(Cc1ccccc1)(CC(F)(F)F)C(=O)Nc1cnc2c(Cl)cccc2c1 (stereo not shown) [Compound E-51, 2-benzyl-N-(8-chloro-3-quinolyl)-4,4,4-trifluoro-2-methyl-butanamide] | ≥ 80 | ≥ 80 | ≥ 80 | ≥ 80 | ≥ 80 | ≥ 80 | 104 to 106 | ≥ 80 | 
2 | C=C(C)CC(CC)(Cc1ccccc1)C(=O)Nc1cnc2c(F)cccc2c1 (stereo not shown) [Compound E-46, 2-benzyl-2-ethyl-N-(8-fluoro-3-quinolyl)-4-methyl-pent-4-enamide] | ≥ 80 | ≥ 80 |  | ≥ 80 | ≥ 80 | ≥ 80 |  |  | ≥ 80
3 | Cc1nc2c(F)cccc2cc1NC(=O)C(Cc1ccccc1)CC(F)(F)F (stereo not shown) [Compound E-44, 2-benzyl-4,4,4-trifluoro-N-(8-fluoro-2-methyl-3-quinolyl)butanamide] | ≥ 80 | ≥ 80 | ≥ 80 | ≥ 80 |  | ≥ 80 |  |  | ≥ 80
4 | Cc1c(NC(=O)C(C)(Cc2ccccc2)CC(C)C)cnc2c(Cl)cccc12 (stereo not shown) [Compound E-14, 2-benzyl-N-(8-chloro-4-methyl-3-quinolyl)-2,4-dimethyl-pentanamide] | ≥ 80 | ≥ 80 |  | ≥ 80 |  | ≥ 80 | 124 to 126 | ≥ 80 | 
5 | C=C(C)CC(C)(Cc1cccc(F)c1)C(=O)Nc1cc2cccc(F)c2nc1C (stereo not shown) [Compound E-12, N-(8-fluoro-2-methyl-3-quinolyl)-2-[(3-fluorophenyl)methyl]-2,4-dimethyl-pent-4-enamide] | ≥ 80 | ≥ 80 |  | ≥ 80 | ≥ 80 | ≥ 80 | 124 to 126 | ≥ 80 | 
6 | C=C(C)CC(Cc1ccccc1)C(=O)Nc1cnc2c(F)cccc2c1C (stereo not shown) [Compound E-93, 2-benzyl-N-(8-fluoro-4-methyl-3-quinolyl)-4-methyl-pent-4-enamide] | ≥ 80 | ≥ 80 |  | ≥ 80 | ≥ 80 |  | 116 to 118 |  | ≥ 80
7 | CC1(C[C@@](C)(Cc2ccccc2)C(=O)Nc2cnc3c(F)cccc3c2)CC1 [Compound F-10, (2S)-2-benzyl-N-(8-fluoro-3-quinolyl)-2-methyl-3-(1-methylcyclopropyl) propanamide] | ≥ 80 | ≥ 80 |  | ≥ 80 | ≥ 80 | ≥ 80 | 58 to 60 | ≥ 80 | 
8 | Cc1c(NC(=O)C(C)(Cc2ccccc2)CC(F)(F)F)cnc2c(Cl)cccc12 (stereo not shown) [Compound E-15, 2-benzyl-N-(8-chloro-4-methyl-3-quinolyl)-4,4,4-trifluoro-2-methyl-butanamide] | ≥ 80 | ≥ 80 |  | ≥ 80 | ≥ 80 | ≥ 80 | 73 to 75 | ≥ 80 | 
9 | CC(C)CC(F)(Cc1ccccc1)C(=O)Nc1cnc2c(F)cccc2c1 (stereo not shown) [Compound E-1, 2-benzyl-2-fluoro-N-(8-fluoro-3-quinolyl)-4-methyl-pentanamide] | ≥ 80 | ≥ 80 | ≥ 80 | ≥ 80 | ≥ 80 |  |  |  | ≥ 80
10 | Cc1c(NC(=O)[C@@](C)(Cc2ccccc2)CC(F)(F)F)cnc2c(F)cccc12 [Compound F-14, (2S)-2-benzyl-4,4,4-trifluoro-N-(8-fluoro-4-methyl-3-quinolyl)-2-methyl-butanamide] | ≥ 80 | ≥ 80 | ≥ 80 | ≥ 80 | ≥ 80 | ≥ 80 | 74 to 76 | ≥ 80 | 
11 | C=C(C)CC(C)(Cc1cccc(F)c1)C(=O)Nc1cnc2c(F)cccc2c1 (stereo not shown) [Compound E-11, 2-[(3-fluorophenyl)methyl]-N-(8-fluoro-3-quinolyl)-2,4-dimethyl-pent-4-enamide] | ≥ 80 | ≥ 80 |  | ≥ 80 | ≥ 80 | ≥ 80 | 125 to 127 | ≥ 80 | 
12 | C=C(Cl)CC(Cc1ccccc1)C(=O)Nc1cnc2c(F)cccc2c1 (stereo not shown) [Compound E-6, 2-benzyl-4-chloro-N-(8-fluoro-3-quinolyl)pent-4-enamide] | ≥ 80 | ≥ 80 |  | ≥ 80 | ≥ 80 |  | 166 to 168 |  | ≥ 80
13 | CC(Cc1ccccc1)(CC1(F)CC1)C(=O)Nc1cnc2c(F)cccc2c1 (stereo not shown) [Compound E-25, 2-benzyl-3-(1-fluorocyclopropyl)-N-(8-fluoro-3-quinolyl)-2-methyl-propanamide] | ≥ 80 | ≥ 80 | ≥ 80 | ≥ 80 |  | ≥ 80 | 162 to 164 | ≥ 80 | 
14 | Cc1c(NC(=O)[C@@](C)(Cc2ccccc2)CC(C)C)cnc2c(F)cccc12 [Compound F-4, (2R)-2-benzyl-N-(8-fluoro-4-methyl-3-quinolyl)-2,4-dimethyl-pentanamide] | ≥ 80 | ≥ 80 | ≥ 80 | ≥ 80 |  |  |  |  | ≥ 80
15 | Cc1c(NC(=O)[C@](C)(Cc2ccccc2)CC(F)(F)F)cnc2c(F)cccc12 [Compound F-13, (2R)-2-benzyl-4,4,4-trifluoro-N-(8-fluoro-4-methyl-3-quinolyl)-2-methyl-butanamide] | ≥ 80 | ≥ 80 | ≥ 80 | ≥ 80 | ≥ 80 | ≥ 80 | 71 to 73 | ≥ 80 | 
16 | Cc1nc2c(F)cccc2cc1NC(=O)C(C)(Cc1cccc(F)c1)CC(C)C (stereo not shown) [Compound E-10, N-(8-fluoro-2-methyl-3-quinolyl)-2-[(3-fluorophenyl)methyl]-2,4-dimethyl-pentanamide] | ≥ 80 | ≥ 80 | ≥ 80 | ≥ 80 | ≥ 80 | ≥ 80 | 93 to 95 | ≥ 80 | 
17 | C#CCC(C)(Cc1ccccc1)C(=O)Nc1cc2cccc(F)c2nc1C (stereo not shown) [Compound E-2, 2-benzyl-N-(8-fluoro-2-methyl-3-quinolyl)-2-methyl-pent-4-ynamide] | ≥ 80 | ≥ 80 | ≥ 80 | ≥ 80 |  |  |  |  | ≥ 80
18 | CC#CCC(Cc1ccccc1)C(=O)Nc1cnc2c(F)cccc2c1 (stereo not shown) [Compound E-29, 2-benzyl-N-(8-fluoro-3-quinolyl)hex-4-ynamide] | ≥ 80 |  |  |  |  | ≥ 80 | 218 to 220 |  | ≥ 80
19 | Cc1nc2c(F)cccc2cc1NC(=O)[C@@](C)(Cc1ccccc1)CC(C)C [Compound F-8, (2R)-2-benzyl-N-(8-fluoro-2-methyl-3-quinolyl)-2,4-dimethyl-pentanamide] | ≥ 80 | ≥ 80 | ≥ 80 | ≥ 80 | ≥ 80 | ≥ 80 |  | ≥ 80 | 
20 | Cc1nc2c(F)cccc2cc1NC(=O)C(C)(Cc1ccccc1)CC(F)(F)F (stereo not shown) [Compound E-47, 2-benzyl-4,4,4-trifluoro-N-(8-fluoro-2-methyl-3-quinolyl)-2-methyl-butanamide] | ≥ 80 | ≥ 80 | ≥ 80 | ≥ 80 |  | ≥ 80 | 130 to 132 | ≥ 80 | 
21 | C=C(Cl)CC(C)(Cc1ccccc1)C(=O)Nc1cnc2c(F)cccc2c1 (stereo not shown) [Compound E-53, 2-benzyl-4-chloro-N-(8-fluoro-3-quinolyl)-2-methyl-pent-4-enamide] | ≥ 80 | ≥ 80 | ≥ 80 | ≥ 80 | ≥ 80 | ≥ 80 | 148 to 150 | ≥ 80 | 
